This note sets out measurements from patent publication US20250263424A1, “KRAS INHIBITORS” (Bristol-Myers Squibb Company, priority 2022, published 2025).

For orientation: IC50 means the concentration needed to halve the response being measured.

Recombinant GMPPNP-loaded KRAS G12C (KRAS-G12C(ON), active form), sequence (P01116 1-188 isoform P01116-2 G12C): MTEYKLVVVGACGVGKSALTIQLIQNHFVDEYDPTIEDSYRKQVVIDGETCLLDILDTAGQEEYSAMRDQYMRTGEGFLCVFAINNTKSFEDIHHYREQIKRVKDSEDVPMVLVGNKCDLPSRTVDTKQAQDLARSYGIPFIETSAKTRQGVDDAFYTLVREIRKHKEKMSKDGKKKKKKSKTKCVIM

The first assay concerns the target Recombinant GMPPNP-loaded KRAS G12C (KRAS-G12C(ON), active form) (Homo sapiens, UniProt P01116, G12C). Kind of assay: KRAS G12C RAF Disruption Assay (HTRF). The assay is classed as biochemical. The settings on record: GMPPNP-loaded KRAS G12C 5 nM, GST-RAF1 RBD 9 nM, values given in μM, read-out: KRASG12C RAF Disruption Assay (IC50). As for the experimental part: This is a functional assay that measures activity of compounds against […]., the active form of KRAS G12C. Recombinant GMPPNP-loaded KRAS G12C (5 nM) was treated with compound at room temperature for 20 minutes in assay buffer (50 mM Tris pH 7.5, 100 mM NaCl, 1 mM MgCl2, 1 mM DTT, 100 μg/ml BSA). Recombinant GST-RAF1 RBD (9 nM) was added, and the reaction mixture was incubated for 20 minutes. SA-Tb (0.25 nM) was added, and the reaction mixture was incubated for 3 hours. HTRF signal was measured (PerkinElmer Envision), the signal ratio (λem 520/λem 495) was calculated, and IC50 values were calculated from the dose-response curve.
As for `Cc1cc(N)nc(-c2c(Cl)cc3c(N4CC5CCC(C4)N5C(=O)/C(F)=C/c4ccccn4)nc(OC[C@@]45CCCN4C[C@H](F)C5)nc3c2F)c1C(F)(F)F` [Example 7, (Z)-1-((1R,5S)-3-((7M)-7-(6-amino-4-methyl-3-(trifluoromethyl)pyridin-2-yl)-6-chloro-8-fluoro-2-(((2R,7aS)-2-fluorotetrahydro-1H-pyrrolizin-7a(5H)-yl)methoxy)quinazolin-4-yl)-3,8-diazabicyclo[3.2.1]octan-8-yl)-2-fluoro-3-(pyridin-2-yl)prop-2-en-1-one], the IC50 came out at 2 µM.
The same measure, in the same setting: as for `CN1CCC[C@H]1COc1nc(N2C[C@H]3CC[C@@H](C2)N3C(=O)/C(F)=C/c2ccccn2)c2cc(Cl)c(-c3cc(O)cc4ccccc34)c(F)c2n1` [Example 8, (Z)-1-((1R,5S)-3-(6-chloro-8-fluoro-7-(3-hydroxynaphthalen-1-yl)-2-(((S)-1-methylpyrrolidin-2-yl)methoxy)quinazolin-4-yl)-3,8-diazabicyclo[3.2.1]octan-8-yl)-2-fluoro-3-(pyridin-2-yl)prop-2-en-1-one], the figure is 9.6 µM.
Consider `O=C(/C(F)=C/c1nccs1)N1[C@@H]2CC[C@H]1CN(c1nc(OC[C@@]34CCCN3C[C@H](F)C4)nc3c(F)c(-c4cccc5cccc(Cl)c45)ccc13)C2` [Example 10, (Z)-1-((1R,5S)-3-(7-(8-chloronaphthalen-1-yl)-8-fluoro-2-(((2R,7aS)-2-fluorotetrahydro-1H-pyrrolizin-7a(5H)-yl)methoxy)quinazolin-4-yl)-3,8-diazabicyclo[3.2.1]octan-8-yl)-2-fluoro-3-(thiazol-2-yl)prop-2-en-1-one], for which the IC50 came out at 93 µM.
Take `Cc1cc(N)nc(-c2c(Cl)cc3c(N4CC5CCC(C4)N5C(=O)/C(F)=C/c4nccs4)nc(OCC4(CN5CCCCC5)CC4)nc3c2F)c1C(F)(F)F` [Example 11, (Z)-1-((1R,5S)-3-((7M)-7-(6-amino-4-methyl-3-(trifluoromethyl)pyridin-2-yl)-6-chloro-8-fluoro-2-((1-(piperidin-1-ylmethyl)cyclopropyl)methoxy)quinazolin-4-yl)-3,8-diazabicyclo[3.2.1]octan-8-yl)-2-fluoro-3-(thiazol-2-yl)prop-2-en-1-one]: the IC50 was determined as 5.3 µM.
For the molecule `Cc1cc(N)nc(-c2c(Cl)cc3c(N4CC5CC(C4)N5C(=O)/C(F)=C/c4nccs4)nc(OC[C@]45CCCN4C[C@H](F)C5)nc3c2F)c1C(F)(F)F` [Example 12, (Z)-1-(3-((7M)-7-(6-amino-4-methyl-3-(trifluoromethyl)pyridin-2-yl)-6-chloro-8-fluoro-2-(((2R,7aR)-2-fluorotetrahydro-1H-pyrrolizin-7a(5H)-yl)methoxy)quinazolin-4-yl)-3,6-diazabicyclo[3.1.1]heptan-6-yl)-2-fluoro-3-(thiazol-2-yl)prop-2-en-1-one], the IC50 was 9.2 µM.
Still for that read-out and setting: as for `Cc1cc(N)nc(-c2c(Cl)cc3c(N4CCC5C(C4)CN5C(=O)/C(F)=C/c4nccs4)nc(OC[C@]45CCCN4C[C@H](F)C5)nc3c2F)c1C(F)(F)F` (stereo partly drawn) [Example 16, (Z)-1-(3-((7M)-7-(6-amino-4-methyl-3-(trifluoromethyl)pyridin-2-yl)-6-chloro-8-fluoro-2-(((2R,7aR)-2-fluorotetrahydro-1H-pyrrolizin-7a(5H)-yl)methoxy)quinazolin-4-yl)-3,7-diazabicyclo[4.2.0]octan-7-yl)-2-fluoro-3-(thiazol-2-yl)prop-2-en-1-one], the figure is 4.2 µM; as for `Cc1cc(N)nc(-c2c(Cl)cc3c(N4C[C@H](C)N(C(=O)/C(F)=C/c5nccs5)C[C@H]4C)nc(OCC45CCCN4CC(F)C5)nc3c2F)c1C(F)(F)F` (stereo partly drawn) [Example 19, (Z)-1-((2S,5R)-4-((7M)-7-(6-amino-4-methyl-3-(trifluoromethyl)pyridin-2-yl)-6-chloro-8-fluoro-2-((2-fluorotetrahydro-1H-pyrrolizin-7a(5H)-yl)methoxy)quinazolin-4-yl)-2,5-dimethylpiperazin-1-yl)-2-fluoro-3-(thiazol-2-yl)prop-2-en-1-one], 3.2 µM.
Same read-out and setting: as for `C#Cc1c(F)ccc2cc(O)cc(-c3ccc4c(N5C[C@H]6CC[C@@H](C5)N6C(=O)/C(F)=C/c5ncccn5)nc(OC[C@@H]5CCCN5C)nc4c3F)c12` [Example 30, (Z)-1-((1R,5S)-3-(7-(8-ethynyl-7-fluoro-3-hydroxynaphthalen-1-yl)-8-fluoro-2-(((S)-1-methylpyrrolidin-2-yl)methoxy)quinazolin-4-yl)-3,8-diazabicyclo[3.2.1]octan-8-yl)-2-fluoro-3-(pyrimidin-2-yl)prop-2-en-1-one], the figure is 21.3 µM.

The assay is the same for the next values; noted with them: GMPPNP-loaded KRAS G12C 5 nM, GST-RAF1 RBD 9 nM, values in nM, read-out: KRASG12C RAF Disruption Assay (IC50).
As to `C#Cc1c(F)ccc2cc(O)cc(-c3ccc4c(N5C[C@H]6CC[C@@H](C5)N6C(=O)/C(F)=C/c5nccs5)nc(OC[C@@H]5CCCN5C)nc4c3F)c12` [Example 21, (Z)-1-((1R,5S)-3-(7-(8-ethynyl-7-fluoro-3-hydroxynaphthalen-1-yl)-8-fluoro-2-(((S)-1-methylpyrrolidin-2-yl)methoxy)quinazolin-4-yl)-3,8-diazabicyclo[3.2.1]octan-8-yl)-2-fluoro-3-(thiazol-2-yl)prop-2-en-1-one], the 50% inhibitory concentration (IC50) turned out to be 0.4 µM.
In the case of `C#Cc1c(F)ccc2cc(O)cc(-c3ccc4c(N5C[C@H]6CC[C@@H](C5)N6C(=O)/C(F)=C/c5ccccn5)nc(OC[C@@H]5CCCN5C)nc4c3F)c12` [Example 22, (Z)-1-((1R,5S)-3-(7-(8-ethynyl-7-fluoro-3-hydroxynaphthalen-1-yl)-8-fluoro-2-(((S)-1-methylpyrrolidin-2-yl)methoxy)quinazolin-4-yl)-3,8-diazabicyclo[3.2.1]octan-8-yl)-2-fluoro-3-(pyridin-2-yl)prop-2-en-1-one], the IC50 came to 0.26 µM.
As to `CN1CCC[C@H]1COc1nc(N2CCN(C(=O)/C(F)=C/c3nccs3)[C@@H](CC#N)C2)c2ccc(-c3cc(O)cc4ccccc34)c(F)c2n1` [Example 23, 2-((S)-1-((Z)-2-fluoro-3-(thiazol-2-yl)acryloyl)-4-(8-fluoro-7-(3-hydroxynaphthalen-1-yl)-2-(((S)-1-methylpyrrolidin-2-yl)methoxy)quinazolin-4-yl)piperazin-2-yl)acetonitrile], the IC50 came to 0.016 µM.
Take `CN1CCC[C@H]1COc1nc(N2CCN(C(=O)/C(F)=C/c3ccccn3)[C@@H](CC#N)C2)c2ccc(-c3cc(O)cc4ccccc34)c(F)c2n1` [Example 24, 2-((S)-1-((Z)-2-fluoro-3-(pyridin-2-yl)acryloyl)-4-(8-fluoro-7-(3-hydroxynaphthalen-1-yl)-2-(((S)-1-methylpyrrolidin-2-yl)methoxy)quinazolin-4-yl)piperazin-2-yl)acetonitrile]: the IC50 was 0.022 µM.
Same read-out and setting: as for `C#Cc1c(F)ccc2cc(O)cc(-c3ccc4c(N5C[C@H]6CC[C@@H](C5)N6C(=O)/C(F)=C/c5ccccn5)nc(OC[C@]56CCC[C@H]5N(C)CCC6)nc4c3F)c12` [Example 27, (Z)-1-((1R,5S)-3-(7-(8-ethynyl-7-fluoro-3-hydroxynaphthalen-1-yl)-8-fluoro-2-(((4aS,7aR)-1-methyloctahydro-4aH-cyclopenta[b]pyridin-4a-yl)methoxy)quinazolin-4-yl)-3,8-diazabicyclo[3.2.1]octan-8-yl)-2-fluoro-3-(pyridin-2-yl)prop-2-en-1-one], the figure is 0.0064 µM; as for `CN1CCC[C@H]1COc1nc(N2CCN(C(=O)/C(F)=C/c3ccccn3)CC2)c2ccc(-c3cc(O)cc4ccccc34)c(F)c2n1` [Example 28, (S,Z)-2-fluoro-1-(4-(8-fluoro-7-(3-hydroxynaphthalen-1-yl)-2-((1-methylpyrrolidin-2-yl)methoxy)quinazolin-4-yl)piperazin-1-yl)-3-(pyridin-2-yl)prop-2-en-1-one], 0.35 µM; as for `CN1CCC[C@H]1COc1nc(N2CCN(C(=O)/C(F)=C/c3nccs3)CC2)c2ccc(-c3cc(O)cc4ccccc34)c(F)c2n1` [Example 29, (S,Z)-2-fluoro-1-(4-(8-fluoro-7-(3-hydroxynaphthalen-1-yl)-2-((1-methylpyrrolidin-2-yl)methoxy)quinazolin-4-yl)piperazin-1-yl)-3-(thiazol-2-yl)prop-2-en-1-one], 0.18 µM.
Regarding `CN1CCC[C@H]1COc1nc(N2CCN(C(=O)/C(F)=C/c3ncccn3)CC2)c2ccc(-c3cc(O)cc4ccccc34)c(F)c2n1` [Example 32, (S,Z)-2-fluoro-1-(4-(8-fluoro-7-(3-hydroxynaphthalen-1-yl)-2-((1-methylpyrrolidin-2-yl)methoxy)quinazolin-4-yl)piperazin-1-yl)-3-(pyrimidin-2-yl)prop-2-en-1-one], the IC50 was found to be 0.29 µM.
On to `CN1CCC[C@H]1COc1nc(N2CCN(C(=O)/C(F)=C/c3nccs3)[C@@H](CC#N)C2)c2ccc(-c3cccc4cccc(Cl)c34)c(F)c2n1` [Example 33, 2-((S)-1-((Z)-2-fluoro-3-(thiazol-2-yl)acryloyl)-4-(8-fluoro-7-(8-chloronaphthalen-1-yl)-2-(((S)-1-methylpyrrolidin-2-yl)methoxy)quinazolin-4-yl)piperazin-2-yl)acetonitrile], for which the IC50 worked out at 0.076 µM.
On the same count and under the same terms, as for `Cc1cccc(/C=C(\F)C(=O)N2CCN(c3nc(OC[C@@H]4CCCN4C)nc4c(F)c(-c5cc(O)cc6ccccc56)ccc34)C[C@@H]2CC#N)n1` [Example 34, 2-((S)-1-((Z)-2-fluoro-3-(6-methylpyridin-2-yl)acryloyl)-4-(8-fluoro-7-(3-hydroxynaphthalen-1-yl)-2-(((S)-1-methylpyrrolidin-2-yl)methoxy)quinazolin-4-yl)piperazin-2-yl)acetonitrile], the figure is 0.027 µM.
